Values joined by “and” are separate entries in the source; they are usually repeats but may differ in a detail not shown here. Identical values can stand only once. Like-named read-outs stand apart in the source and are kept apart here.
Assays:
[1] = tested on: NF54^WT parasites; assay: microbe, parasite or virus in culture; assay type: cell-based, Plasmodium falciparum
In short: (§1)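 Predominantly ring-stage cultures at 0.3% parasitaemia, 1% haematocrit, in medium with 10% O+ human serum; compound exposure 72 h, DMSO <0.5% (v/v). Live parasites counted by flow cytometry with SYBR Green I and 200 nM MitoTracker Deep Red. IC50/IC90 from linear interpolation of dose-response data.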

[2] = tested on: NF54^G358S-2 parasites; assay: P. falciparum proliferation assay (72 h, flow cytometry, SYBR Green I/MitoTracker); assay type: cell-based, Plasmodium falciparum
In short: as §1

[3] = molecular target: T1, PfATP4^G358S (membranes from Dd2-Polδ-PfATP4^G358S parasites) (Plasmodium falciparum, UniProt A0A143ZZK9, G358S); assay: Membrane ATPase assay, ATP4-associated (Na+-dependent) ATPase activity; assay type: biochemical; design: IC50 for inhibition of ATP4-associated ATPase activity, MEAN / IC50 for inhibition of ATP4-associated ATPase activity: unit: nM; conditions: for PfATP4-associated ATPase activity (% of control): Dd2-Polδ-PfATP4G358S
T1 sequence (A0A143ZZK9 1-1264 G358S): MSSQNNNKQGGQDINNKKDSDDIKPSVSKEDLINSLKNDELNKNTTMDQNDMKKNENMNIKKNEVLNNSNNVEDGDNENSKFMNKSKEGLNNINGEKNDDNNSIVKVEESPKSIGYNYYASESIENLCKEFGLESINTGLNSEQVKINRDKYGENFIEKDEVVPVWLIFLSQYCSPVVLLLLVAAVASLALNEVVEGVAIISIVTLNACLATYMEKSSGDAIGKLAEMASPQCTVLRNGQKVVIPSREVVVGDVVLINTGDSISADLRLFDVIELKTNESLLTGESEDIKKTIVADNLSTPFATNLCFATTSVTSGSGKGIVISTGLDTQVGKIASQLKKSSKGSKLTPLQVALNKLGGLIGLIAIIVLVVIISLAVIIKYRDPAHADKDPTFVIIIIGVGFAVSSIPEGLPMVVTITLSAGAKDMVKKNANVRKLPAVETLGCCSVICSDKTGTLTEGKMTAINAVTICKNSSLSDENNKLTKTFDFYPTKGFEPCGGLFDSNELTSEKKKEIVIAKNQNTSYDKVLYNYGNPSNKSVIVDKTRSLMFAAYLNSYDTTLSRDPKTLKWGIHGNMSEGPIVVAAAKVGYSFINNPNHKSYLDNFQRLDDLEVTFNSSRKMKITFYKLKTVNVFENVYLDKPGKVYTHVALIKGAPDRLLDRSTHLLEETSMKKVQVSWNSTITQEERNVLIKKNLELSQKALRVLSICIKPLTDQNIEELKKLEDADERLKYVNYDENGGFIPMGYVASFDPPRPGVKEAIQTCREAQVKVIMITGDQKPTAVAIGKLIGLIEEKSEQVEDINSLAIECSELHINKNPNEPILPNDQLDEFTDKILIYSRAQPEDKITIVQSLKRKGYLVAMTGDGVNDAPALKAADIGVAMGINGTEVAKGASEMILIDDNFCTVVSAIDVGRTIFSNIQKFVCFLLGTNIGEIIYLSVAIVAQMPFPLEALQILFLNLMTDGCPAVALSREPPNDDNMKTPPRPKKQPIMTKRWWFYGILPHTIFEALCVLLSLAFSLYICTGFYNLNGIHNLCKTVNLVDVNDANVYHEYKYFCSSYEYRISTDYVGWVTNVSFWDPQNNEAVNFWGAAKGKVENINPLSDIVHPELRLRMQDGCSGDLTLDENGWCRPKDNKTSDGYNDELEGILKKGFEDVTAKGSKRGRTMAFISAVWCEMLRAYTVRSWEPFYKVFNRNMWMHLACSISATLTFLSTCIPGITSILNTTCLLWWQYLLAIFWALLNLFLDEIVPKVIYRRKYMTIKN
Method: Membranes from isolated P. falciparum or extracellular T. gondii parasites were prepared by lysing parasites in ice-cold deionized water containing a 1:500 dilution of Protease Inhibitor Cocktail Set III (Merck Millipore), then washing the membrane preparation three times in ice-cold deionized water (with protease inhibitors present for the first two washes)[15]. Protein concentrations in the membrane preparations were measured using a Bradford assay. The PiColorLock Gold Phosphate Detection System (Innova Biosciences) was used to measure the production of Pi from hydrolysis of ATP[15]. Membrane preparations were diluted in either a high Na^+ solution (yielding final conditions in the reactions of 150 mM NaCl, 20 mM KCl, 2 mM MgCl2, 50 mM Tris, pH 7.2) or a Na^+-free solution (yielding final conditions of 150 mM choline chloride, 20 mM KCl, 2 mM MgCl2, 50 mM Tris, pH 7.2) to achieve a total protein concentration of 50 μg/mL. […] The reactions were performed at 37 °C, and were initiated by the addition of 1 mM ATP (Na2ATP۰3H2O; MP Biomedicals) and terminated 10 min later by adding 100 μL of reaction mixture (in duplicate) to 25 μL “Gold mix” in a 96-well plate. […] Background values (averaged from wells containing all components, but to which ATP was not added until after the membrane was exposed to Gold mix) were subtracted from the data. For each treatment, the ATPase activity associated with the (Na^+-dependent) PfATP4 and TgATP4 proteins was calculated by subtracting data obtained in the low Na^+ condition (containing only the 2 mM Na^+ introduced on addition of 1 mM Na2ATP) from that obtained in the high Na^+ condition.

SMILES: N#Cc1cc(NC(=O)[C@H]2c3ccccc3C(=O)N(CC(F)(F)F)[C@@H]2c2cccnc2)ccc1F [(+)-SJ733]
- IC90 ([1]; NF54WT parasites, individual experiments, read-out: IC90 values): 0.171 µM and 0.165 µM and 0.176 µM
- FC (IC50) ([1]; NF54WT, reference line): 1.0 fold
- FC (IC90) ([1]; NF54WT, reference line): 1.0 fold
- IC50 ([1]; NF54WT, single experiments, source data of Fig. 2 (nM in Supplementary Table 5), read-out: IC50 values): 89.8 nM and 87.1 nM and 107 nM
- IC90 ([1]; Plasmodium falciparum, NF54, NF54WT parasites, individual experiments, read-out: IC90 values): 0.141 µM
- IC90 ([1]; Plasmodium falciparum, NF54, NF54WT parasites, mean of the experiments, read-out: IC90 values, MEAN): 0.164 µM
- IC50 ([1]; Plasmodium falciparum, NF54, NF54WT, MEAN, source data of Fig. 2, read-out: IC50 values, MEAN): 93.8 nM
- IC50 ([1]; Plasmodium falciparum, NF54, NF54WT, single experiments, source data of Fig. 2 (nM in Supplementary Table 5), read-out: IC50 values): 91.6 nM
- IC50 ([2]; NF54G358S-2, single experiments, source data of Fig. 2 (nM in Supplementary Table 5), read-out: IC50 values): 11600 nM and 13800 nM and 13500 nM
- FC (IC50) ([2]; NF54G358S-2 compared to NF54WT): 138.1 fold
- FC (IC90) ([2]; NF54G358S-2 compared to NF54WT): 152.9 fold
- IC90 ([2]; NF54G358S-2 parasites, individual experiments, read-out: IC90 values): 25.5 µM and 23.3 µM and 23.8 µM
- IC50 ([2]; Plasmodium falciparum, NF54, NF54G358S-2, 10% human serum, read-out: IC50 ± SEM): 13000 ± 480 nM
- IC90 ([2]; Plasmodium falciparum, NF54, NF54G358S-2, 10% human serum, read-out: IC90 ± SEM): 25 ± 0.892 µM
- IC50 ([2]; Plasmodium falciparum, NF54, NF54G358S-2, MEAN, source data of Fig. 2, read-out: IC50 values, MEAN): 13000 nM
- IC50 ([2]; Plasmodium falciparum, NF54, NF54G358S-2, single experiments, source data of Fig. 2 (nM in Supplementary Table 5), read-out: IC50 values): 12900 nM
- IC90 ([2]; Plasmodium falciparum, NF54, NF54G358S-2 parasites, individual experiments, read-out: IC90 values): 27.3 µM
- IC90 ([2]; Plasmodium falciparum, NF54, NF54G358S-2 parasites, mean of the experiments, read-out: IC90 values, MEAN): 25 µM
- IC50 for inhibition of ATP4-associated ATPase activity ([3]; Dd2-Polδ-PfATP4G358S membranes, single experiments, source data of Table 1 (nM there)): 816 and 877 and 793
- IC50 for ATP4-associated ATPase activity ([3]; membranes from Dd2-Polδ-PfATP4G358S, mean ± SEM): 829 ± 25 (3) (P = 5 × 10^−6) nM

SMILES: N#Cc1cc(NC(=O)[C@H]2c3ccccc3C(=O)N(CC(F)(F)F)[C@@H]2c2cccnc2)ccc1F [(+)SJ733]
- PfATP4-associated ATPase activity (% of control) ([3]; [(+)SJ733] 0.122 nM, MEAN): 85.0 % of control
- PfATP4-associated ATPase activity (% of control) ([3]; [(+)SJ733] 0.122 nM, single experiments, 0.000122 µM): 115.8 % of control and 74.1 % of control and 65.2 % of control
- PfATP4-associated ATPase activity (% of control) ([3]; [(+)SJ733] 0.244 nM, MEAN): 125.3 % of control
- PfATP4-associated ATPase activity (% of control) ([3]; [(+)SJ733] 0.244 nM, single experiments, 0.000244 µM): 139.0 % of control and 119.0 % of control and 117.8 % of control
- PfATP4-associated ATPase activity (% of control) ([3]; [(+)SJ733] 0.5 nM, MEAN): 90.2 % of control
- PfATP4-associated ATPase activity (% of control) ([3]; [(+)SJ733] 0.5 nM, single experiments, 0.0005 µM): 95.6 % of control and 76.4 % of control and 98.6 % of control
- PfATP4-associated ATPase activity (% of control) ([3]; [(+)SJ733] 1.0 nM, MEAN): 98.3 % of control
- PfATP4-associated ATPase activity (% of control) ([3]; [(+)SJ733] 2.0 nM, MEAN): 109.4 % of control
- PfATP4-associated ATPase activity (% of control) ([3]; [(+)SJ733] 2.0 nM, single experiments, 0.002 µM): 114.6 % of control and 135.7 % of control and 77.8 % of control
- PfATP4-associated ATPase activity (% of control) ([3]; [(+)SJ733] 3.9 nM, MEAN): 81.9 % of control
- PfATP4-associated ATPase activity (% of control) ([3]; [(+)SJ733] 3.9 nM, single experiments, 0.0039 µM): 93.0 % of control and 73.2 % of control and 79.5 % of control
- PfATP4-associated ATPase activity (% of control) ([3]; [(+)SJ733] 7.8 nM, MEAN): 84.3 % of control
- PfATP4-associated ATPase activity (% of control) ([3]; [(+)SJ733] 7.8 nM, single experiments, 0.0078 µM): 82.0 % of control and 99.5 % of control and 71.2 % of control
- PfATP4-associated ATPase activity (% of control) ([3]; [(+)SJ733] 15.6 nM, MEAN): 119.8 % of control
- PfATP4-associated ATPase activity (% of control) ([3]; [(+)SJ733] 15.6 nM, single experiments, 0.0156 µM): 88.8 % of control and 152.3 % of control and 118.3 % of control
- PfATP4-associated ATPase activity (% of control) ([3]; [(+)SJ733] 31.3 nM, MEAN): 94.2 % of control
- PfATP4-associated ATPase activity (% of control) ([3]; [(+)SJ733] 31.3 nM, single experiments, 0.0313 µM): 92.0 % of control and 104.2 % of control and 86.4 % of control
- PfATP4-associated ATPase activity (% of control) ([3]; [(+)SJ733] 62.5 nM, MEAN): 103.2 % of control
- PfATP4-associated ATPase activity (% of control) ([3]; [(+)SJ733] 62.5 nM, single experiments, 0.0625 µM): 102.4 % of control and 79.6 % of control and 127.6 % of control
- PfATP4-associated ATPase activity (% of control) ([3]; [(+)SJ733] 250 nM, MEAN): 82.2 % of control
- PfATP4-associated ATPase activity (% of control) ([3]; [(+)SJ733] 250 nM, single experiments, 0.25 µM): 91.0 % of control and 86.1 % of control and 69.4 % of control
- PfATP4-associated ATPase activity (% of control) ([3]; [(+)SJ733] 500 nM, MEAN): 53.9 % of control
- PfATP4-associated ATPase activity (% of control) ([3]; [(+)SJ733] 1000 nM, MEAN): 56.2 % of control
- PfATP4-associated ATPase activity (% of control) ([3]; [(+)SJ733] 2000 nM, MEAN): 20.4 % of control
- PfATP4-associated ATPase activity (% of control) ([3]; [(+)SJ733] 4000 nM, MEAN): -1.2 % of control
- PfATP4-associated ATPase activity (% of control) ([3]; [(+)SJ733] 8000 nM, MEAN): -15.8 % of control

— article PMC9525273 (Nature Communications, 2022)
